The values that follow come from patent publication US20070135499A1 (Aerie Pharmaceuticals, Inc., priority 2005, published 2007).

Assay [1] relates to porcine trabecular meshwork (PTM) cells. Briefly: Cell-based porcine trabecular meshwork (PTM) assay, actin-fiber length. The following applies: activity at 50 μM as compared to control. On the set-up: key: +++: More active than control-; ++: As active as control; +: Less active than control; −: Inactive. As for the experimental part: Cell-based porcine trabecular meshwork (PTM) assay.
The anterior section of porcine eyes was harvested within 4 hours post-mortem. The iris and ciliary body were removed and trabecular meshwork cells were harvested by blunt dissection. Finely minced trabecular meshwork tissue was plated into collagen-coated 6-well plates in Medium-199 containing 20% fetal bovine serum (FBS). After two passages at confluence, cells were transferred to low-glucose DMEM containing 10% FBS. Cells were used between […].
Cells were plated into fibronectin-coated, glass multiwell plates the day before compound testing under standard culture conditions. Compounds were added to cells in the presence of 1% FBS-containing DMEM and 1% DMSO. When compounds were incubated with the cells for the duration determined to be optimal, the media and compound is removed and cells fixed for 20 minutes in 3% methanol-free paraformaldehyde. Cells were rinsed twice with phosphate buffered saline (PBS) and cells are permeabilized with 0.5% Triton X-100 for two minutes. Following an additional two washes with PBS, F-actin was stained with Alexa-fluor 488-labelled phalloidin and nuclei are stained with DAPI.
Data was reduced to the mean straight actin-fiber length and normalized to DMSO-treated control cells (100%) and 50 μM Y-27632 (0%). Y-27632 is a rho-kinase inhibitor known to result in the depolymerization of F-actin in these cells.
The cellular assay described in Reference Example Two was used to test some of the foregoing Examples 1-101, the results of which are presented below. The results are provided in terms activity at 50 μM as compared to control

For a further assay, the target named is GRK-6 (Homo sapiens, UniProt P43250). The experiment in a line: luciferase-based biochemical kinase inhibition assay, GRK-6. The conditions noted are these: same luciferase assay; read-out: GRK-6 inhibition, Ki class. As for the experimental part: (§1) The inhibition of G-protein-coupled receptor kinases including hGRK-2 was determined for the hydrazide compounds using a biochemical assay. The inhibition of GRK-3, GRK-5 and GRK-6 was also determined using the same assay for some of the hydrazide derivatives.
Sequence of GRK-6 (P43250 whole entry, species assumed): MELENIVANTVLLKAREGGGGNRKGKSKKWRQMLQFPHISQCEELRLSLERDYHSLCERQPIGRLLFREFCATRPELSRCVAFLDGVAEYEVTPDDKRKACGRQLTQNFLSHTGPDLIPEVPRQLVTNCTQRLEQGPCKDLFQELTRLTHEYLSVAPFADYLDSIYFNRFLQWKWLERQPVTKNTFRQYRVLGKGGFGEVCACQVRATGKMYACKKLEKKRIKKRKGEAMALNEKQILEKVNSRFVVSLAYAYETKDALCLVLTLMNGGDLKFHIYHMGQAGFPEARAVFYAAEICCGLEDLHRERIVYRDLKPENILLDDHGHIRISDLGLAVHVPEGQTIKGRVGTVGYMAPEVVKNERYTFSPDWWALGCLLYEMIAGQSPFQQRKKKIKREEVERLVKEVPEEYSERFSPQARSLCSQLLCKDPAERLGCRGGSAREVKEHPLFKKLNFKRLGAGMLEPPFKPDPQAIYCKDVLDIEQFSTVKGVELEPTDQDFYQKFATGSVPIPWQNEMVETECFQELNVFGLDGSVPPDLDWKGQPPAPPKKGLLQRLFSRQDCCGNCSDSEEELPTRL
(§2) The protein kinase inhibition was determined using a biochemical assay utilizing the light emission of a luciferase reaction. The luciferase-based assay operates on the following reaction principles: [drawing 10]
(§3) An inhibitor of GRK-2 will increase in the amount of ATP in solution, as shown. Thus, an inhibitor of GRK-2 will drive the luciferase reaction to the right, resulting in more light emitted. The amount of light emitted is proportional to the inhibition resulting from the GRK-2 inhibitor. The luciferase-based assay was also used to test some of the hydrazides for the inhibition properties towards other kinases.

For the next assay, the target named is T1, GRK-3 (Homo sapiens, UniProt P35626).
T1 sequence (P35626 1-688): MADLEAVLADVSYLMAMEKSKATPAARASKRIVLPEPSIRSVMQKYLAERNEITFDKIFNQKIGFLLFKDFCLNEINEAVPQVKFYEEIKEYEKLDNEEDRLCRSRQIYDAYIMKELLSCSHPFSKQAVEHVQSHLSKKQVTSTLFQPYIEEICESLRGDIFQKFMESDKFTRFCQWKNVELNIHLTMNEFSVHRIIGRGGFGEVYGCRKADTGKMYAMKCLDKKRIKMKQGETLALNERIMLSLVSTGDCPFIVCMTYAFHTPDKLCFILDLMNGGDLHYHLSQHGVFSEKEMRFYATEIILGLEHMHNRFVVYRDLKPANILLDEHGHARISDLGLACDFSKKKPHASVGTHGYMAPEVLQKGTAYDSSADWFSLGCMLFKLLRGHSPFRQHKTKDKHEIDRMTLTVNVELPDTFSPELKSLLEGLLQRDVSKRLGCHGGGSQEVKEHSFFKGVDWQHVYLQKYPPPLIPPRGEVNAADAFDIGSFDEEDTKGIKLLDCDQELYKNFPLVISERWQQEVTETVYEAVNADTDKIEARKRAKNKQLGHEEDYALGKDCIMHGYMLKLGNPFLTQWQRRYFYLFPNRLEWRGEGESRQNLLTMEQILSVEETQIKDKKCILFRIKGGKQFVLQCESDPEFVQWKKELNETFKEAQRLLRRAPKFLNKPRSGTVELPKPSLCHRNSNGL
The experiment in a line: luciferase-based biochemical kinase inhibition assay, GRK-3. The following applies: same luciferase assay; read-out: GRK-3 inhibition, Ki class. As for the experimental part: as §1, §2, §3

In a further assay the target is T2, hGRK-2 (Homo sapiens, UniProt P25098).
T2 sequence (P25098 1-689): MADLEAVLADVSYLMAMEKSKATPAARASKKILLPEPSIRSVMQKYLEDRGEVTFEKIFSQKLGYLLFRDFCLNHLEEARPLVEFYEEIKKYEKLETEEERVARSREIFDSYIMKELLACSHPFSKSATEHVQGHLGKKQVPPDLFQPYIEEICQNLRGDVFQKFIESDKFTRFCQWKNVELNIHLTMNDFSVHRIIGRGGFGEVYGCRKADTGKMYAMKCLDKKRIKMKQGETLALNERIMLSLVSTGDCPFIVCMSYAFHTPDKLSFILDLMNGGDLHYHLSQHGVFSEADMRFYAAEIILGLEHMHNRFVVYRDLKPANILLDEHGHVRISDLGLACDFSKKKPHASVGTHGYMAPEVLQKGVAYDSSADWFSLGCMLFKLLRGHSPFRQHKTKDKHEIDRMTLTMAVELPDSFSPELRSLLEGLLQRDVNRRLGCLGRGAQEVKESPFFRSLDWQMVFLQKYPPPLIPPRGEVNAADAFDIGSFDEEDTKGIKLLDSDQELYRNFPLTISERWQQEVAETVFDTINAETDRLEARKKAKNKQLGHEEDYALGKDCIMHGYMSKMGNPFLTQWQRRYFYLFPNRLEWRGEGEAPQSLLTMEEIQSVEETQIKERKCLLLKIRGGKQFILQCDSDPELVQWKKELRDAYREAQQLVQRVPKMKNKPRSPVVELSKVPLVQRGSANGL
Briefly: luciferase-based (Kinase-Glo) biochemical kinase inhibition assay, hGRK-2. The conditions noted are these: luciferase assay, casein substrate, 10 μM ATP; read-out: GRK-2 inhibition, Ki class. In short, it runs like this:
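Final conditions: 50 nM hGRK2, 20 μM casein, 10 μM ATP and 50 μM test compound in 4.5% DMSO, in HEPES pH 7.5 buffer with MgCl2, orthovanadate, CHAPS, BSA and DTT. Incubation ran 90-120 min at room temperature, targeting 20-30% ATP consumption. Remaining ATP was read by luminescence with diluted Kinase-Glo containing 0.01% trypan blue.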

The target of the next assay is GRK-5 (Homo sapiens, UniProt P34947). The experiment in a line: luciferase-based biochemical kinase inhibition assay, GRK-5. The conditions noted are these: same luciferase assay; read-out: GRK-5 inhibition, Ki class. Here is the method: The inhibition of G-protein-coupled receptor kinases including hGRK-2 was determined for the hydrazide compounds using a biochemical assay. […] The inhibition of GRK-3, GRK-5 and GRK-6 was also determined using the same assay for some of the hydrazide derivatives.
Sequence of GRK-5 (P34947 whole entry, species assumed): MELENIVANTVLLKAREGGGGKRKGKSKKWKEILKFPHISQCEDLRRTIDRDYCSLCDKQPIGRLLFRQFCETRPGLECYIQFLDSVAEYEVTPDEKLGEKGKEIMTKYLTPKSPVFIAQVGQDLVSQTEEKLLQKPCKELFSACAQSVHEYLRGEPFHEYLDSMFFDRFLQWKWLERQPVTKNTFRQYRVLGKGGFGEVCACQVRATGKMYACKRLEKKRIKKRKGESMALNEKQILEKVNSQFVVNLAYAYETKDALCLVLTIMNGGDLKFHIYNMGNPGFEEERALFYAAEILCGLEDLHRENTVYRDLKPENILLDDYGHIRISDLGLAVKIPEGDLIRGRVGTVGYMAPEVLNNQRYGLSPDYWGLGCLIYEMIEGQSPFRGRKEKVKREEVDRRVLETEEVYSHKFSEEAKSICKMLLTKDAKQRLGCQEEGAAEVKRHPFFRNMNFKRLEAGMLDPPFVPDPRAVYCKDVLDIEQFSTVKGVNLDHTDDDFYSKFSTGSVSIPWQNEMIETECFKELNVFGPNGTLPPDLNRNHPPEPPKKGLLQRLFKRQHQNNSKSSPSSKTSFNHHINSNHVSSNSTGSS
as §2, §3

In the case of `O=C(CNc1ccc(Oc2ccccc2)cc1)N/N=C/c1c(Cl)cncc1Cl`, the “PTM Cell Assay Result” value in assay [1] is listed as “+”.
`COc1cc(/C=N/NC(=O)CNc2cccc(Cl)c2)nc(OC)n1`: the “PTM Cell Assay Result” value in assay [1] is listed as “+”.
Turning to `COc1ccc(Oc2cccc(NCC(=O)N/N=C/c3ccncc3)c2)cc1`, in assay [1], the “PTM Cell Assay Result” value is “+”.
As a reminder, the Ki is a measure of affinity in units of concentration, obtained from inhibition or displacement. For the compound `COc1cccc(NCC(=O)N/N=C/c2c(Cl)cncc2Cl)c1` [Example 5, (3-Methoxy-phenylamino)-acetic acid [1-(3,5-dichloro-pyridin-4-yl)-meth-(E)-ylidene]-hydrazide], the Ki on GRK-6 is more than 10000 nM; on GRK-3, 10 to 100 nM; on hGRK-2 it was 10 to 100 nM.
On to `CCOc1cccc(NCC(=O)N/N=C/c2c(Cl)cncc2Cl)c1` [Example 21, (3-Ethoxy-phenylamino)-acetic acid [1-(3,5-dichloro-pyridin-4-yl)-meth-(E)-ylidene]-hydrazide], for which the Ki was more than 10000 nM on GRK-3, 100 to 1000 nM on hGRK-2 and more than 10000 nM at GRK-5.
Consider `NS(=O)(=O)c1cccc(NCC(=O)N/N=C/c2c(Cl)cncc2Cl)c1` [Example 22, 3-{[1-(3,5-Dichloro-pyridin-4-yl)-meth-(E)-ylidene-hydrazinocarbonylmethyl]-amino}-benzenesulfonamide], for which the values for the Ki on GRK-3, at hGRK-2 and on GRK-5 were 1000 to 10000 nM, 100 to 1000 nM and 1000 to 10000 nM, respectively.
Take `O=C(CNc1cccc(Cl)c1)N/N=C/c1ccncc1` [Example 37, (3-Chloro-phenylamino)-acetic acid [1-pyridin-4-yl-meth-(E)-ylidene]-hydrazide]: the Ki at GRK-3 is 1000 to 10000 nM; at hGRK-2 it was 100 to 1000 nM; at GRK-5, more than 10000 nM.
Taken in the same sequence, the figures for `O=C(CNc1cccc(F)c1)N/N=C/c1ccncc1` [Example 40, (3-Fluoro-phenylamino)-acetic acid [1-pyridin-4-yl-meth-(E)-ylidene]-hydrazide] were 1000 to 10000 nM, 100 to 1000 nM and more than 10000 nM.
For the compound `O=C(CNc1cccc(OCc2ccccc2)c1)N/N=C/c1ccncc1` [Example 47, (3-Benzyloxy-phenylamino)-acetic acid [1-pyridin-4-yl-meth-(E)-ylidene]-hydrazide], the Ki on GRK-3 lay within 100 to 1000 nM; on hGRK-2, 100 to 1000 nM; at GRK-5 it was 1000 to 10000 nM.
For `CSc1cccc(NCC(=O)N/N=C/c2ccncc2)c1` [Example 48, (3-Methylsulfanyl-phenylamino)-acetic acid [1-pyridin-4-yl-meth-(E)-ylidene]-hydrazide], the Ki was 100 to 1000 nM on GRK-3, 100 to 1000 nM at hGRK-2 and more than 10000 nM on GRK-5.
`CNC(=O)c1cccc(NCC(=O)N/N=C/c2ccncc2)c1` [Example 52, N-Methyl-3-{[1-pyridin-4-yl-meth-(E)-ylidene-hydrazinocarbonylmethyl]-amino}-benzamide]: the Ki on GRK-3 was 100 to 1000 nM; at hGRK-2, 100 to 1000 nM; at GRK-5, more than 10000 nM.
As to `NS(=O)(=O)c1cccc(NCC(=O)N/N=C/c2ccncc2)c1` [Example 63, 3-{[1-Pyridin-4-yl-meth-(E)-ylidene-hydrazinocarbonylmethyl]-amino}-benzenesulfonamide], the inhibitory constant (Ki) is 1000 to 10000 nM at GRK-3, 100 to 1000 nM at hGRK-2 and more than 10000 nM on GRK-5.
Take `C/C(=N\NC(=O)CNc1cccc(OCc2ccccc2)c1)c1ccncc1` [Example 87, (3-Benzyloxy-phenylamino)-acetic acid [1-pyridin-4-yl-eth-(E)-ylidene]-hydrazide]: the Ki is 100 to 1000 nM on GRK-3, 100 to 1000 nM at hGRK-2 and more than 10000 nM at GRK-5.
Turning to `C/C(=N\NC(=O)CNc1cccc(Oc2ccccc2)c1)c1ccncc1` [Example 89, (3-Phenoxy-phenylamino)-acetic acid [1-pyridin-4-yl-eth-(E)-ylidene]-hydrazide], the Ki on GRK-3 is 100 to 1000 nM; on hGRK-2, 100 to 1000 nM; at GRK-5 it was more than 10000 nM.
Take `C/C(=N\NC(=O)CNc1cccc(C(=O)Nc2ccccc2)c1)c1ccncc1` [Example 90, N-Phenyl-3-{[1-pyridin-4-yl-eth-(E)-ylidene-hydrazinocarbonylmethyl]-amino}-benzamide]: the inhibition constant Ki was 100 to 1000 nM at GRK-3, 100 to 1000 nM on hGRK-2 and more than 10000 nM at GRK-5.
On to `O=C(CNc1cccc(C(=O)Nc2ccccc2)c1)N/N=C/c1c(Cl)cncc1Cl` [Example 97, 3-{[1-(3,5-Dichloro-pyridin-4-yl)-meth-(E)-ylidene-hydrazinocarbonylmethyl]-amino}-N-phenyl-benzamide], for which the inhibition constant (Ki) was 10 to 100 nM at GRK-3, 100 to 1000 nM on hGRK-2 and 1000 to 10000 nM on GRK-5.
As for `O=C(CNc1cccc(C(=O)Nc2ccccc2)c1)N/N=C/c1c(Cl)cncc1Cl` [drawing 112], the “PTM Cell Assay Result” value in assay [1] is reported as “++”.
The same measure, in the same setting: in the case of `O=C(CNc1cccc(C(=O)Nc2ccccc2)c1)N/N=C/c1ccncc1` [drawing 113] it was “++”.
The same measure, in the same setting: the same measure for `O=C(CNc1cccc(C(=O)Nc2cccnc2)c1)N/N=C/c1ccncc1` [drawing 114]: “++”; for `O=C(CNc1cccc(C(=O)NCCN2CCOCC2)c1)N/N=C/c1c(Cl)cncc1Cl` [drawing 116]: “+”; for `CNC(=O)c1cccc(NCC(=O)N/N=C/c2c(Cl)cncc2Cl)c1` [drawing 118]: “+”.
On the same count and under the same terms, the same measure for `C/C(=N\NC(=O)CNc1cccc(C(=O)Nc2ccccc2)c1)c1ccncc1` [drawing 119]: “+”.
